# Assay results reported in paper PMC11650849, “Brain endothelial permeability, transport, and flow assessed over 10 orders of magnitude using the in situ brain perfusion technique” (Fluids and Barriers of the CNS, 2024).
# Read-outs that look alike come from different tables or passages of the source.
# Experiments:
# [1] = Neutral fraction at pH 7.4 calculated from pKa; format: physicochemical; conditions: neutral fraction at perfusion fluid pH 7.40, calculated from pKa
# [2] = rat in vivo measurements; cited from earlier work
# [3] = rat, brain
# in vivo = conditions: rat, pH 7.4
# [4] = ref Fenstermacher (papers of the 1990s and 2000s); cited from earlier work
# [5] = rat in vivo measurements; cited from earlier work; remark: listed apart in the source
# [6] = pH 7.4
# GLUT1 = molecular target: T1, GLUT1 (Rattus norvegicus, UniProt P11167); assay: In situ brain perfusion, facilitated nutrient transport by GLUT1; format: in vivo; conditions: facilitated nutrients
# T1 construct: from tissue; host or cells: brain vascular endothelium (BBB) of the in situ perfused brain
# T1 sequence (P11167 1-492): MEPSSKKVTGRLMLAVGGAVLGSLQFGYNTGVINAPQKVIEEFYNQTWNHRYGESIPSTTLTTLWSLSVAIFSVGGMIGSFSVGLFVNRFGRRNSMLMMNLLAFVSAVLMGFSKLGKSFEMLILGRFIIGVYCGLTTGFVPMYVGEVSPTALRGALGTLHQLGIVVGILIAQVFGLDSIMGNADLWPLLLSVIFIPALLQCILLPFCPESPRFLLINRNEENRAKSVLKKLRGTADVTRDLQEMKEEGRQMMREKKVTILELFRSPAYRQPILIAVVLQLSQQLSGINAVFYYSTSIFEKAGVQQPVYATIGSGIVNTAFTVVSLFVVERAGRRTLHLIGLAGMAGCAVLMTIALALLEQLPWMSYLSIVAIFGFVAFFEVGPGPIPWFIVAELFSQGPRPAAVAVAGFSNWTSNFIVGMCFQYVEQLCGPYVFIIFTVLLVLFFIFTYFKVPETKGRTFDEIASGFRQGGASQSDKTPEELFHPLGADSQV
# MCT8 L-T3 Transporter = MCT8 L-T3 Transporter (Rattus norvegicus, UniProt Q8K1P8)
# MAT1 = molecular target: T2, MAT1 (Rattus norvegicus, UniProt P53987); conditions: facilitated nutrients, MAT1, S 30 s
# T2 sequence (P53987 1-494): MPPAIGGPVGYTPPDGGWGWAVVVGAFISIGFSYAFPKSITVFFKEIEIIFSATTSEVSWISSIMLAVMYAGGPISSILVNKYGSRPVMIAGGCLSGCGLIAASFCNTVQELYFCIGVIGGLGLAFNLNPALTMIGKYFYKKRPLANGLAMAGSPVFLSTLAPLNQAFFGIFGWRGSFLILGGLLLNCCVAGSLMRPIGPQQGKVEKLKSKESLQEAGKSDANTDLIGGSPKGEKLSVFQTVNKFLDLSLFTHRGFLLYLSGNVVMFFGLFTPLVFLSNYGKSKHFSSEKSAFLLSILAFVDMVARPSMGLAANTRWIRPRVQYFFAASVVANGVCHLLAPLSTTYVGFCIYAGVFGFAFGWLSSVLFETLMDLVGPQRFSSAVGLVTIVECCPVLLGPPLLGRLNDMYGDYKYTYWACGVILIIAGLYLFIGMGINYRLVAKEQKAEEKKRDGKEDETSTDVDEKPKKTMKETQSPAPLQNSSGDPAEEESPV
# [7] = Octanol/water partition and distribution coefficients; conditions: octanol distribution coefficient, pH 7.4
# MCT8 L-T3 Transporter, sequence (Q8K1P8 whole entry): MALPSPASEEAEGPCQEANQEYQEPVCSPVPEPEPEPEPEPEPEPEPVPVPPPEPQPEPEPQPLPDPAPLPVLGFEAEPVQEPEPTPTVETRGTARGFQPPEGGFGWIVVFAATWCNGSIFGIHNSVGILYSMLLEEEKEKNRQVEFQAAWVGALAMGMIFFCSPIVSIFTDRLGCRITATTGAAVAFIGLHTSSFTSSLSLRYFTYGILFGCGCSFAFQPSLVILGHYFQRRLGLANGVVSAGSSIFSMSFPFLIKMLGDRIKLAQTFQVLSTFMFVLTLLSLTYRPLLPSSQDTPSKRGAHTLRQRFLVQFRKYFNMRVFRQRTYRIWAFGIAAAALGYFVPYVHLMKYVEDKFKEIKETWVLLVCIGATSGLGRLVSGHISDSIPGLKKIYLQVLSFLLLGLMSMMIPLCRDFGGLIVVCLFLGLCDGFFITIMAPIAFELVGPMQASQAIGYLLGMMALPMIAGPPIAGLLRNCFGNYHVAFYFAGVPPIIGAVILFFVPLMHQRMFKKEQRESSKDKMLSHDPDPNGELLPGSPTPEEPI
molecule,measurement,setting,value
Cc1cc(=O)n(-c2ccccc2)n1C [Antipyrine],fn (%),[1],100%
same,"fu,.p",[2],0.92
same,half-life,[3],55.8 s
same,half-life,in vivo,60 s
same,brain vascular PS,[4],0.02 to 0.025 mL/s/g
same,"Brain Vu,br",[5],1.25 mL/g
same,Brain Kin,calculated at brain blood flow […] and rat serum fu,0.0143 mL/s/g
same,Extraction (unbound),"calculated at brain blood flow […], free drug",62.7%
same,Brain vascular extraction (total),"calculated at brain blood flow […], with rat serum fu",59.7%
OC[C@H]1OC(O)[C@H](O)[C@@H](O)[C@@H]1O (stereo partly drawn) [D-Glucose],Log Doct 7.4,[6],−1.88
same,Log PS,GLUT1; GLUT1,−2.16
same,PS,"GLUT1; GLUT1, S 16 s",0.00694 mL/s/g
N[C@@H](Cc1cc(I)c(Oc2ccc(O)c(I)c2)c(I)c1)C(=O)O [L-T3],PS,MCT8 L-T3 Transporter,0.0146 mL/s/g
L-Lactate,PS,MAT1,0.00125 mL/s/g
same,Log Doct 7.4,[7],−0.70
